{
  "source": "paper PMC7902086",
  "about": "(Toxicology letters, 2019)",
  "key": {"CYP2C19": {"molecular_target": "CYP2C19 (Homo sapiens, UniProt P33261)", "sequence (P33261 whole entry)": "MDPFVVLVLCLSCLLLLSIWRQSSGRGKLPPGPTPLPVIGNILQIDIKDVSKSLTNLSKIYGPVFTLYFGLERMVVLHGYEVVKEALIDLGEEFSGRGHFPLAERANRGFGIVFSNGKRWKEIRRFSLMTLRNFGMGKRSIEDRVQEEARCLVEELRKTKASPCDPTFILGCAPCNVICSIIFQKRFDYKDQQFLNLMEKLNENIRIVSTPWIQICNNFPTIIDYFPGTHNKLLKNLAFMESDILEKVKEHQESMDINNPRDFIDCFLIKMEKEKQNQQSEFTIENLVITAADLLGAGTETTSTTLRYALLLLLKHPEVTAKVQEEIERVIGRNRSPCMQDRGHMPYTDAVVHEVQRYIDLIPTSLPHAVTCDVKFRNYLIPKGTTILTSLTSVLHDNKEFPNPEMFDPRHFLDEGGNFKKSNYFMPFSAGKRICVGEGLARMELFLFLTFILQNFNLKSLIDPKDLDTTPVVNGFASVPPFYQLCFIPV", "assay": "CYP450 inhibition assay, S-mephenytoin 4′-hydroxylase in human liver microsomes", "assay_type": "in vitro ADME", "settings": "read-out: IC50, CYP2C19 S-Mephenytoin 4′-hydroxylase; human liver microsomes 0.1 mg/mL; mean of triplicate"}, "CYP3A4/5 [1]": {"test_system": "CYP3A4/5", "assay": "CYP450 inhibition assay, testosterone 6β-hydroxylase in human liver microsomes", "assay_type": "in vitro ADME", "settings": "read-out: IC50, CYP3A4/5 Testosterone 6β-hydroxylase; human liver microsomes 0.1 mg/mL; mean of triplicate"}, "CYP3A4/5 [2]": {"test_system": "CYP3A4/5", "assay": "CYP450 inhibition assay, midazolam 1′-hydroxylase in human liver microsomes", "assay_type": "in vitro ADME", "settings": "read-out: IC50, CYP3A4/5 Midazolam 1′-hydroxylase; human liver microsomes 0.1 mg/mL; mean of triplicate"}, "μ-opioid receptors": {"test_system": "μ-opioid receptors", "settings": "ref Boyer et al., 2008; Kruegel et al., 2016; cited from earlier work"}, "CYP2D6": {"molecular_target": "CYP2D6 (Homo sapiens, UniProt P10635)", "sequence (P10635 whole entry)": "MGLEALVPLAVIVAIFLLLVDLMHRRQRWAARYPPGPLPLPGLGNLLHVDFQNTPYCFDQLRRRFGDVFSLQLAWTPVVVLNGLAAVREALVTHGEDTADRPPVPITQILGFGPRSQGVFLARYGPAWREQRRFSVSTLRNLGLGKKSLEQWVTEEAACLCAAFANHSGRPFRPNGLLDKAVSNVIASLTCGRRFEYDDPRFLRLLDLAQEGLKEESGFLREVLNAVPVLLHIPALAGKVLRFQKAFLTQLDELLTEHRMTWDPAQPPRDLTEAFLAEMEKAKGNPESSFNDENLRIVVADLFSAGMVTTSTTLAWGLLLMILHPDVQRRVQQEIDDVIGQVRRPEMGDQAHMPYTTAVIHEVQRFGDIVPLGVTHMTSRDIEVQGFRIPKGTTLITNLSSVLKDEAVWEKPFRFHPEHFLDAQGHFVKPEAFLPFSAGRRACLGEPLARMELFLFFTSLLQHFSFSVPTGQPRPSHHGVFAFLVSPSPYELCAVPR", "settings": "known CYP2D6 substrates; ref Obach et al., 2006; cited from earlier work"}, "[3]": {"settings": "deceased kratom users in the United States, autopsies; ref Gershman et al., 2019; cited from earlier work"}, "CYP3A4": {"test_system": "CYP3A4", "settings": "in humans; ref Kamble et al., 2019; cited from earlier work"}},
  "note": "Where “and” joins values, the source holds several entries; their conditions need not be identical. Identical values can stand only once.",
  "data": [
    {"compound": "CC[C@@H]1CN2CC[C@@]3(O)C(=Nc4cccc(OC)c43)[C@@H]2C[C@@H]1/C(=C\\OC)C(=O)OC", "note": "[7HMG, 7-hydroxymitragynine]", "values": [
      {"measurement": "IC50", "setting": "CYP2C19", "value": 27.7, "unit": "µM"},
      {"measurement": "IC50", "setting": "CYP3A4/5 [1]", "value": "> 45", "unit": "µM"},
      {"measurement": "IC50", "setting": "CYP3A4/5 [2]", "value": "> 45", "unit": "µM"},
      {"measurement": "activity at μ-opioid receptors", "setting": "μ-opioid receptors", "value": "partial agonists"}
    ]},
    {"compound": "C=C[C@H]1CN2CCc3c([nH]c4cccc(OC)c34)[C@@H]2C[C@@H]1/C(=C\\OC)C(=O)OC", "note": "[PAY, paynantheine]", "values": [
      {"measurement": "IC50", "setting": "CYP2C19", "value": 38.4, "unit": "µM"},
      {"measurement": "IC50", "setting": "CYP3A4/5 [1]", "value": "> 45", "unit": "µM"},
      {"measurement": "IC50", "setting": "CYP3A4/5 [2]", "value": 7.9, "unit": "µM"}
    ]},
    {"compound": "CC[C@@H]1CN2CCc3c([nH]c4cccc(OC)c34)[C@H]2C[C@@H]1/C(=C\\OC)C(=O)OC", "note": "[SPC, speciocilliatine]", "values": [
      {"measurement": "IC50", "setting": "CYP2C19", "value": 8, "unit": "µM"},
      {"measurement": "IC50", "setting": "CYP3A4/5 [1]", "value": "> 45", "unit": "µM"},
      {"measurement": "IC50", "setting": "CYP3A4/5 [2]", "value": 26.4, "unit": "µM"}
    ]},
    {"compound": "CC[C@H]1CN2CCc3c([nH]c4cccc(OC)c34)[C@@H]2C[C@@H]1/C(=C\\OC)C(=O)OC", "note": "[SPG, speciogynine]", "values": [
      {"measurement": "IC50", "setting": "CYP2C19", "value": 19.5, "unit": "µM"},
      {"measurement": "IC50", "setting": "CYP3A4/5 [1]", "value": "> 45", "unit": "µM"},
      {"measurement": "IC50", "setting": "CYP3A4/5 [2]", "value": 13.5, "unit": "µM"}
    ]},
    {"compound": "CNCCCN1c2ccccc2CCc2ccccc21", "note": "[desipramine]", "values": [
      {"measurement": "fm, CYP2D6", "setting": "CYP2D6", "value": 0.9}
    ]},
    {"compound": "COc1ccc2c(c1)[C@]13CCCC[C@@H]1[C@H](C2)N(C)CC3", "note": "[dextromethorphan]", "values": [
      {"measurement": "fm, CYP2D6", "setting": "CYP2D6", "value": 1}
    ]},
    {"compound": "COCCc1ccc(OCC(O)CNC(C)C)cc1", "note": "(stereo not shown) [metoprolol]", "values": [
      {"measurement": "fm, CYP2D6", "setting": "CYP2D6", "value": 0.8}
    ]},
    {"compound": "mitragynine [MTG]", "values": [
      {"measurement": "serum concentration levels", "setting": "[3]", "value": "16 to 4800 ng/mL and 0.041–12.05 μM"},
      {"measurement": "activity at μ-opioid receptors", "setting": "μ-opioid receptors", "value": "partial agonists"},
      {"measurement": "enzyme predominantly responsible for metabolism", "setting": "CYP3A4", "value": "predominantly metabolized by CYP3A4"}
    ]}
  ]
}
